Patent US7812014B2, “Bicyclic 6-alkylidene-penems as β-lactamase inhibitors” (priority 2002, dated 2010)
Structures can show the parent of a compound that is named as a salt. Where two headings read alike, the source gives them in different places.

Key:
class C enzyme AmpC = class C enzyme AmpC (Enterobacter cloacae, UniProt P05364); assay: biochemical; design: species or system Enterobacter cloaca
Method: (§1) IC50 Determination for the Penem Inhibitor
(§2) β-Lactamase inhibitory activity of the penem inhibitors was determined spectrophotometrically as described by Bush et al., [Bush, K., Macalintal, C., Rasmussen, B. A., Lee, V. and Yang, Y. Antimicrobial Agents and Chemotherapy 1993, 37, 851]. Homogeneously purified class A β-lactamases TEM-1 from E. coli and Imi-1 from Enterobacter cloacae, class B enzyme CcrA from Bacteroides fragilis and class C enzyme AmpC from Enterobacter cloaca were employed in the assay. The enzyme concentrations for TEM-1, Imi-1, CcrA and AmpC were 4.3, 7.1, 1.2 and 2.1 nM, respectively. A wide range of inhibitor concentrations were prepared in 50 mM PO4, pH 7.0 to include the possible IC50 values. The substrate used to initiate the enzyme reaction was nitrocefin at 50 μg/ml in the same buffer as the inhibitor. Initially the enzyme and inhibitor (20 μl each) were preincubated for 10 minutes at 25° C. prior to the addition of 160 μl volume of nitrocefin. Initial rates of hydrolysis were monitored for 5 minutes at 495 nm using a Molecular Devices Spectra Max 250 with kinetic protocol of SoftMax Program. Readings from the Spectra Max 250 were exported and transferred to Microsoft Excel. The percent of inhibition of each inhibitor concentration was calculated based on the control enzyme activity. The inhibitor concentration that caused a 50% reduction in the enzymatic activity (IC50) was determined graphically.

[1] = target: class A β-lactamase Imi-1 (Enterobacter cloacae, UniProt Q46991); assay: IC50 determination, β-lactamase inhibition (nitrocefin, spectrophotometric); type: biochemical
Chain of class A β-lactamase Imi-1 (Q46991 28-292): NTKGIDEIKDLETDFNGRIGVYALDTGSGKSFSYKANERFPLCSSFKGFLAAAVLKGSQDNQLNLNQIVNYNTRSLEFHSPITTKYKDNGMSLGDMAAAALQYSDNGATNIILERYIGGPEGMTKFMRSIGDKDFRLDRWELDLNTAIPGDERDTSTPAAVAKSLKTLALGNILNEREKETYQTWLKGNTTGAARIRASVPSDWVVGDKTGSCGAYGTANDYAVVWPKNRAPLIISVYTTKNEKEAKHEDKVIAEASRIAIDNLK
Method: as §1, §2

class B enzyme CcrA = class B enzyme CcrA (Bacteroides fragilis, UniProt P25910); assay: as above; type: biochemical
Chain of class B enzyme CcrA (P25910 19-249): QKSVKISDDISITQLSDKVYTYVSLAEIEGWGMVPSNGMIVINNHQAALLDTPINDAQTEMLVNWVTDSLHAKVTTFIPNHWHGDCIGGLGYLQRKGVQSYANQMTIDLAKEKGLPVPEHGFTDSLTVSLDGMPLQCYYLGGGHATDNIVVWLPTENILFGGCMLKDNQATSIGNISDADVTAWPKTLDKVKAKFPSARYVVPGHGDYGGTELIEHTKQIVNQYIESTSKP
Method: as §1, §2

[2] = system: Clinical isolates that have been adapted to cause infection in mice; assay: In vivo antibacterial protection, 7 day survival of infected mice; design: species or system mice strain CD-1; conditions: Mus musculus, 168 h
Source text: In Vivo Antibacterial Protection
Female mice strain CD-1, approximately 18-22 grams, were received from Charles River Laboratories and quarantined 7 days prior to use. In addition, mice may be rendered neutropenic using cytoxan.
Clinical isolates that have been adapted to cause infection in mice, are used in the experiment, including infections with strains of E. coli, K. pneumoniae, M. morganii, E. cloacae, S. marcescens, C. freundii, staphylococci, streptococci, P. aeruginosa and N. gonorrhoeae.
Mice are challenged by injecting 0.5 ml intraperitoneally or 0.05 ml intranasally of a predetermined bacterial inoculum suspended in broth, saline or hog gastric mucin (supplemented with dried bovine hemoglobin for N. gonorrhoeae). […] Antibacterial doses (dose concentration prepared by two fold serial dilutions of the antibiotic) are dissolved or suspended in 0.2% aqueous agar or methocel, phosphate buffered saline or an adjuvant are administered orally, subcutaneously or intravenously in the following manner: • a) Orally or subcutaneously: Dose volume of 0.5 ml administered ½ hr after infection. A second dose may be administered 3 hr. after infection for treatment of infections with more virulent organisms. • b) Intravenously: Dose volume of 0.2 ml, administered ½ hr. after infection. For the treatment of infections with more virulent organisms, more doses, up to 48 hr may be administered. (Intravenous dosing will not exceed 3 doses/24 hr period.) • c) Oral pretreatment: Under special circumstances, the pH of the stomach needs to be adjusted in order to increase the gastric stability of the antibiotic. For this purpose, 0.5 ml of phosphate buffered saline (pH7.8, 0.06M) (or specific approved adjuvant) is administered orally ½ hr after infection, followed 5 minutes later by 0.5 ml of antibiotic (also orally) contained in phosphate buffered saline (pH7.8, 0.06M). Animal Species
A detailed explanation as to the number of animals needed for the determination of in vivo efficacy follows: • A) Novel antibiotics are tested at 5 different dose levels with 5 mice per dose level at each of three routes of administration (oral, subcutaneous and intravenous). […] This would require 25 mice/route with 3 routes/antibiotic or 75 mice per novel compound tested. One to two novel antibiotics will be tested per experiment (75-150 mice) • B) The effectiveness of the new compound must be compared to that of a standard, or antibiotic of known effectiveness. Known or previously tested antibiotics are tested at 5 dose levels with 5 mice per dose level by a single route of administration, for a total of 25 mice/antibiotic. Usually 3-6 antibiotics will be tested per experiment. (75-150 mice). • C) Untreated controls—In each of the above tests, untreated animals are infected with 3 different concentrations of bacterial inoculum with 10 mice per concentration (30 mice total in each and every test). These untreated controls are used to determine and maintain the infection level between 10-100 LD50s as required for test to test comparison and validity. Determination of Protective Effects of Antibacterial Agents:
The protective effects of the antibacterial agent(s) are measured by the survival of the infected untreated as compared to the treated animals. […] A census of survivors is taken twice daily and at that time dead as well as moribund animals are removed. […] The test is performed three times on separate days to provide a statistically valid number of animals and to minimize variation in test results on a day to day and test to test basis.

[3] = target: class A β-lactamase TEM-1 (Escherichia coli, UniProt P62593); assay: IC50 determination, β-lactamase inhibition (nitrocefin, spectrophotometric); type: biochemical, E. coli; conditions: enzyme 4.3 nM; 10 minutes preincubation at 25° C.; nitrocefin 50 μg/ml; pH 7.0
Chain of class A β-lactamase TEM-1 (P62593 24-286 limits assumed): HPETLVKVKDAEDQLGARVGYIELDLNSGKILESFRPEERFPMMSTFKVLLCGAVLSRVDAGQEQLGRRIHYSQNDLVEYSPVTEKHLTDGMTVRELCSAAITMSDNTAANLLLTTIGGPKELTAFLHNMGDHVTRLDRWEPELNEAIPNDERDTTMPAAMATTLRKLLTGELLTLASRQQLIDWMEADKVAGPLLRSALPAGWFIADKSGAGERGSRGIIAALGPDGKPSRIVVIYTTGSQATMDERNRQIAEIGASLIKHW
Method: as §1, §2

[4] = enzyme 2.1 nM, 10 minutes preincubation at 25° C., nitrocefin 50 μg/ml, pH 7.0, read-out: IC50 (nM) Class C AmpC
[5] = enzyme 7.1 nM, 10 minutes preincubation at 25° C., nitrocefin 50 μg/ml, pH 7.0, read-out: IC50 (nM) Class A Imi
[6] = enzyme 1.2 nM, 10 minutes preincubation at 25° C., nitrocefin 50 μg/ml, pH 7.0, read-out: IC50 (nM) Class B Ccr
[7] = Ratio of Piperacillin vs. Inhibitor not given, read-out: ED50
[8] = Ratio of Piperacillin vs. Inhibitor 2:1, read-out: ED50
[9] = Ratio of Piperacillin vs. Inhibitor 4:1, read-out: ED50

Chain of class C enzyme AmpC (P05364 21-381): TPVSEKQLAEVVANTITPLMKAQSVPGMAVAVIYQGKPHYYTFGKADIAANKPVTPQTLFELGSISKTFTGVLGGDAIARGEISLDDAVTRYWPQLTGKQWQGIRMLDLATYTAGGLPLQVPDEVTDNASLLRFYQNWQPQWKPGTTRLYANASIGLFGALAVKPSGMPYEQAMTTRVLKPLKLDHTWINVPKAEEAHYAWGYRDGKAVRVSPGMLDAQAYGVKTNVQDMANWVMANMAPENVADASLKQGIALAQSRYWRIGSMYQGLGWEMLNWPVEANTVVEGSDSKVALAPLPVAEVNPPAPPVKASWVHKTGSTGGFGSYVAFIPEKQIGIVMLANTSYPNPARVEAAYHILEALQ

| Structure (SMILES) | IC50 (class C enzyme AmpC; [4]) [nM] | IC50 [1, 5] [nM] | IC50 (class B enzyme CcrA; [6]) [nM] | ED50 [2, 7] [mg/kg] | IC50 [3] [nM] | melting point | ED50 [2, 8] [mg/kg] | IC50 [1] [nM] | ED50 [2, 9] [mg/kg] | IC50 (class C enzyme AmpC) [nM] | IC50 (class B enzyme CcrA) [nM] |
| --- | --- | --- | --- | --- | --- | --- | --- | --- | --- | --- | --- |
| O=C(O)C1=CS[C@@H]2/C(=C\c3cc4c(o3)CCC4)C(=O)N12 [Example 27, (5R),(6Z)-6-(5,6-Dihydro-4H-cyclopenta[b]furan-2-ylmethylene)-7-oxo-4-thia-1-azabicyclo[3.2.0]hept-2-ene-2-carboxylic acid, sodium salt] | 2 | 5.5 | 73 | 28 | 2 | – | – | – | – | – | – |
| O=C(O)C1=CS[C@@H]2/C(=C\c3cc4c(s3)CCN(Cc3ccccc3)C4)C(=O)N12 [Example 1, (5R,6Z)-6-[(5-benzyl-4,5,6,7-tetrahydrothieno[3,2-c]pyridin-2-yl)methylene]-7oxo-4-thia-1-azabicyclo[3.2.0]hept-2-ene-2-carboxylic acid] | 12 | 2.1 | 260 | – | 4.2 | 198 °C | 32 to 64 | – | – | – | – |
| O=C(O)C1=CS[C@@H]2/C(=C\c3cn4c(n3)COCC4)C(=O)N12 [Example 7, (5R),(6Z)-6-(5,6-Dihydro-8H-imidazo[2,1-c][1,4]oxazin-2-ylmethylene)-7-oxo-4-thia-1-azabicyclo[3.2.0]hept-2-ene-2-carboxylic acid, sodium salt] | 4.8 | – | 66 | – | 0.4 | – | – | 7.8 | 22.8 | – | – |
| O=C([O-])C1=CS[C@@H]2/C(=C\c3cc4n(n3)CCO4)C(=O)N12.[Na+] [Example 33, (5R)(6Z)-6-(2,3-Dihydropyrazolo[5,1-b]oxazol-6-ylmethylene)-7-oxo-4-thia-1-azabicyclo[3.2.0]hept-2-ene-2-carboxylic acid, sodium salt] | – | 59 | 41 | > 64 | 1.1 | – | – | – | – | 0.85 | – |
| CN1CCn2cc(/C=C3/C(=O)N4C(C(=O)O)=CS[C@H]34)nc2C1 [Example 2, (5R),(6Z)-6-(7-Methyl-5,6,7,8-tetrahydroimidazo[1,2-a]pyrazin-2-ylmethylene)-7-oxo-4-thia-1-aza-bicyclo[3.2.0]hept-2-ene-2-carboxylic acid, sodium salt] | 5.8 | 22 | 120 | – | 4.4 | – | > 64 | – | – | – | – |
| CN1CCc2sc(C=C3C(=O)N4C(C(=O)O)=CSC34)cc2C1 (stereo not shown) [Example 17, 6-(5-Methyl-4,5,6,7-tetrahydro-thieno[3,2-c]pyridin-2-ylmethylene)-7-oxo-4-thia-1-aza-bicyclo[3.2.0]hept-2-ene-2-carboxylic acid] | 26 | 24 | 28 | – | 12 | – | – | – | 37.9 | – | – |
| O=C([O-])C1=CS[C@@H]2/C(=C\c3cn4c(n3)CSC4)C(=O)N12.[Na+] [Example 13, (5R)(6Z)-6-(7H-Imidazo[1,2-c]thiazol-2-ylmethylene)-7-oxo-4-thia-1-azabicyclo[3.2.0]hept-2-ene-2-carboxylic acid, sodium salt] | – | 16 | 160 | 18 | 2.9 | – | – | – | – | 3.1 | – |
| O=C(O)C1=CS[C@@H]2/C(=C\c3cc4n(n3)CCOC4)C(=O)N12 [Example 35, (5R,6Z)-6-(6,7-dihydro-4H-pyrazolo[5,1-c][1,4]oxazin-2-ylmethylene)-7-oxo-4-thia-1-azabicyclo[3.2.0]hept-2-ene-2-carboxylic acid] | 6.1 | – | 30 | 19 | 4.2 | – | – | 230 | – | – | – |
| O=C(O)C1=CSC2C(=Cc3cn4c(n3)CCCCC4)C(=O)N12 (stereo not shown) [Example 19, 7-Oxo-6-(6,7,8,9-tetrahydro-5H-imidazo[1,2-a]azepin-2-ylmethylene)-4-thia-1-aza-bicyclo[3.2.0]hept-2-ene-2-carboxylic acid] | 4.6 | 2700 | 170 | – | 4.8 | – | – | – | 59.2 | – | – |
| O=C(O)C1=CS[C@@H]2/C(=C\c3cn4c(n3)CNCC4)C(=O)N12 [Example 3, (5R),(6Z)-7-Oxo-6-(5,6,7,8-tetrahydroimidazo[1,2-a]pyrazin-2-ylmethylene)-4-thia-1-azabicyclo[3.2.0]hept-2-ene-2-carboxylic acid, sodium salt] | 6.2 | – | – | – | 5.4 | – | – | 28 | 16 to 32 | – | 320 |
| CC1(C)Cc2cc(/C=C3/C(=O)N4C(C(=O)[O-])=CS[C@H]34)nn2C1.[Na+] [Example 26, (5R)(6Z)-6-(5,5-Dimethyl-4H-1,6a-diazapentalen-2-ylmethylene)-7-oxo-4-thia-1-azabicyclo[3.2.0]hept-2-ene-2-carboxylic acid, sodium salt] | – | 54 | 89 | 30 | 0.73 | – | – | – | – | 2.3 | – |
| O=C(O)C1=CS[C@@H]2/C(=C\c3cc4n(n3)CCNC4)C(=O)N12 [Example 25, (5R),(6Z)-7-Oxo-6-(4,5,6,7-tetrahydropyrazolo[1,5-a]pyrazin-2-ylmethylene)-4-thia-1-aza-bicyclo[3.2.0]hept-2-ene-2-carboxylic acid, sodium salt] | 2.7 | 123 | 162 | 30 | 1.1 | – | – | – | – | – | – |
| CN1Cc2nc(/C=C3/C(=O)N4C(C(=O)O)=CS[C@H]34)cn2CC1=O (as salt: sodium) [Example 10, (5R),(6Z)-6-(7-Methyl-6-oxo-5,6,7,8-tetrahydro-imidazo[1,2-a]pyrazin-2-ylmethylene)-7-oxo-4-thia-1-aza-bicyclo[3.2.0]hept-2-ene-2-carboxylic acid sodium salt] | – | – | – | – | – | 115 to 117 °C (dec.) | – | – | – | – | – |
| O=C([O-])C1=CS[C@@H]2/C(=C\c3cc4n(n3)CSC4)C(=O)N12.[Na+] [Example 12, (5R)(6Z)-7-Oxo-6-(4H-5-thia-1,6a-diazapentalen-2-ylmethylene)-4-thia-1-azabicyclo[3.2.0]hept-2-ene-2-carboxylic acid, sodium salt] | – | 56 | 110 | – | 1.4 | – | – | – | 20 | 1.5 | – |
